Measured values from patent US12371666B2, “Nucleoside modified mRNA and uses thereof” (BOSTON MEDICAL CENTER CORPORATION, priority 2021, dated 2025).
Where two headings read alike, the source gives them in different places.

Columns and labels:
[1] = tested on: APAP-induced liver injury; format: in vivo; settings: for survival: GH 2.5 mg/kg or NAC 1000 mg/kg 8 hours post-APAP
Experimental: Acetaminophen-induced liver injury mouse model.
GH and NAC were both diluted in sterile PBS. GH was diluted to a concentration of 1 mg/mL and given at dosage indicated, subcutaneously with a 0.5 mL insulin syringe. NAC was diluted to a concentration of 50 mg/mL and given at 1000 mg/kg dosage, intraperitoneally with a 1 mL insulin syringe.
The statistical analyses for the graphs were carried out using two-sided student's t test for unpaired comparisons with GraphPad Prism™. The statistical analyses for the Kaplan-Meier survival curves were carried out using the Log-rank Mantel-Cox test with GraphPad Prism. A p value<0.05 was considered significant, ***<0.0001, **<0.001, *<0.05, n.s. or no result=not significant.

[2] = intravenous NAC; cited from earlier work
[3] = tested on: centrilobular necrosis; test: APAP-NSG liver injury model dose test; settings: NSG mice, 24 h after injection
[4] = tested on: APAP-induced liver injury; test: Acetaminophen-induced liver injury in male and female C57BL/6J mice
Experimental: Images from stained sections were visualized and measured at 40× magnification on ImageJ™ (FIJI) using the area measurement tool. 2-3 lobes were measured and averaged per mouse.

[5] = tested on: Tg(fabp10a:CFP-NTR) larvae; test: Zebrafish NTR/Mtz hepatocyte ablation model of BEC-driven liver regeneration; settings: for size of regenerating livers: 2 μM, treatment from A0h to R24h
From the text: a. […] In the Tg(fabp10a:CFP-NTR)^5931 zebrafish line, bacterial nitroreductase (NTR) is expressed under the hepatocyte-specific fabp10a promoter^2. Since the NTR enzyme converts the non-toxic prodrug, metronidazole (Mtz), into a cytotoxic drug^59, 60 treating the transgenic zebrafish with Mtz specifically ablates hepatocytes. In this model, upon severe hepatocyte loss, BECs first dedifferentiate into LPCs, then re-differentiate into either hepatocytes or BECs, thereby leading to full liver recovery^2.
b. […] Upon targeted chemical screening using the NTR/Mtz model^61, the inventors examined the effect of VEGFR2 inhibition on BEC-driven liver regeneration. The inventors used the Notch reporter line Tg(Tp1:H2B-mCherry)^939 that expresses H2B-mCherry fusion proteins in BECs.
c. […] Given that VEGFR2 functions via at least two major signaling branches, PI3K/AKT and MEK/ERK1/2, the inventors tested which downstream branch controls BEC-driven liver regeneration using their specific inhibitors (LY294002 for PI3K and U0126 for MEK1/2). […] Given the well-known cascade of PI3K-AKT-mTOR, the inventors further examined mTOR activity in the regenerating livers.

[6] = tested on: BEC-driven liver regeneration; settings: earlier chemical screen of the inventors; cited from earlier work
[7] = b-estradiol treatment of males in APAP liver injury, serum ALT; format: in vivo, mouse; settings: IP 0.5 mg/kg in corn oil, 24 hours following APAP injection
[8] = tested on: BEC-driven liver regeneration; test: BEC-driven liver regeneration in zebrafish hepatocyte ablation model Tg(fabp10a:CFP-NTR) with Mtz; format: in vivo
Experimental: Experiments on zebrafish: All zebrafish experiments were performed under the approval of the IACUC at the University of Pittsburgh. Embryos and adult fish were raised and maintained under standard laboratory conditions. The following transgenic lines were used: Tg(fabp10a:CFP-NTR)s931, Tg(Tp1:H2B-mCherry)s939, Tg(hs:sflt1)bns80, Tg(Tp1:CreERT2)s959, and Tg(hs:loxP-mCherry-loxP-hVEGFA)mn32.
Hepatocyte ablation using the Tg(fabp10a:CFP-NTR) line: Hepatocyte ablation was performed by treating Tg(fabp10a:CFP-NTR) larvae with 10 mM Mtz in egg water supplemented with 0.2% DMSO and 0.2 mM 1-phenyl-2-thiourea from 3.5 to 5 dpf for 36 hours, as previously described^9.
SU5416 treatment: SU5416 (MedChemExpress, Monmouth Junction, NJ) was used at 1.5 μM.
Heat-shock conditions for zebrafish larvae: Both Tg(hs:sflt1) and Tg(hs:loxP-mCherry-loxP-hVEGFA) larvae were heat-shocked by transferring them into egg water pre-warmed to 38.5° C. and keeping them at this temperature for 20 minutes, as previously described^10.
Whole-mount in situ hybridization and immunostaining in zebrafish: Whole-mount in situ hybridization was performed, as previously described^11, with gc^12 and f5 probes. […]
Quantification of Bhmt+ cell number and Bhmt+ area in the zebrafish liver: For the quantification of Bhmt+ cell number, confocal projection images consisting of 6 optical-section images, with 3-μm interval, were used. Bhmt+ and Tp1:H2B-mCherry+ cells were manually counted; the number of Bhmt/Tp:H2B-mCherry double-positive cells was divided by the number of Tp1:H2B-mCherry+ cells. For the quantification of Bhmt+ liver area, confocal projection images showing Bhmt and fabp10a:CFP-NTR expression were used. Both Bhmt^+ and fabp10a:CFP-NTR+ areas in the liver were calculated by ImageJ and the former area was divided by the latter.
Image acquisition, processing, and statistical analysis of zebrafish data: Zeiss LSM700 confocal and Leica MZ16 microscopes were used to obtain image data. Confocal stacks were analyzed using the Zen 2009 software. […] Quantitative data were shown as mean±standard error of the mean (SEM).

[9] = tested on: liver sex-biased genes; settings: rat GH 25 ng/g BW/hr by minipump, male mice; cited from earlier work

## CC(=O)N[C@@H](CS)C(=O)O [NAC, N-acetyl cysteine]
[1]; females
  survival: all females survived regardless of the treatment
[1]; females, NAC 1000 mg/kg
  necrotic tissue: did not show the beneficial effect of reducing necrotic tissue
[1]; males that survived 24 hours post-APAP, NAC 1000 mg/kg
  necrotic areas: significantly diminished
[1]; males, 24 hours post-APAP
  apoptotic TUNEL+ area: significantly diminished
[1]; males, 48 hours post-APAP
  survival: all NAC-treated males died by 48 hours post-APAP
[2]
  patients with anaphylactoid reaction: up to 18%

## CC(=O)Nc1ccc(O)cc1 [APAP, acetyl-para-aminophenol]
[3]; 200 mg/Kg
  liver damage: mild
[3]; 400 mg/kg
  liver damage: severe damage and ultimately death
[4]; 400 mg/kg
  necrosis (H&E), males vs females: more extensive in male livers and progressively increased overtime, whereas female livers fully recovered by 48 hours
  serum bilirubin, males vs females: persisted for 96 hours in males but decreased after 48 hours in females
[4]; 400 mg/kg intraperitoneally, both sexes
  injury and lethality: induces injury in both sexes without lethality up to 96 hours
[4]; 400 mg/kg, time points post-24 hours
  serum ALT levels, males vs females: consistently higher in males than in females

## CN(C)c1ccc(/C=C2\C(=O)Nc3ccccc32)cc1 [SU4312]
[5]
  size of regenerating livers: significantly reduced the size of regenerating livers
[6]
  induction of early hepatocyte markers Prox1 and HNF4α in BEC-derived LPCs: did not affect
  size of regenerating livers: significantly reduced the size of regenerating livers

## C[C@]12CC[C@@H]3c4ccc(O)cc4CC[C@H]3[C@@H]1CC[C@@H]2O [b-estradiol]
[7]
  ALT levels: significantly decreased ALT levels

## Cc1cc(C)c(/C=C2\C(=O)Nc3ccccc32)[nH]1 [SU5416]
[8]; R24h
  LPC-to-hepatocyte differentiation defect by gc and f5 expression: This defect was confirmed
[8]; R24h, SU5416 from A18h to R24h
  expression of the hepatocyte marker Bhmt: greatly suppressed the expression of the hepatocyte marker Bhmt
[8]; SU5416 1.5 μM from A18h to R24h
  size of regenerating livers: significantly reduced the size of regenerating livers
[5]
  size of regenerating livers: significantly reduced the size of regenerating livers
[5]; R6h
  expression of Prox1 and Hnf4a in LPCs: normal expression of Prox1 and Hnf4a
[5]; R6h regenerating livers
  pS6 expression in LPCs (mTORC1 activation): absent
[5]; R24h
  expression of fabp10a:CFP-NTR: very weak expression
  expression of the hepatocyte marker Bhmt: almost no expression
[6]
  induction of early hepatocyte markers Prox1 and HNF4α in BEC-derived LPCs: did not affect
  size of regenerating livers: significantly reduced the size of regenerating livers

B1: cGH: rat recombinant GH given by continuous infusion via osmotic minipump (protein, UniProt P01244 27-216, looked up)
Somatotropin: FPAMPLSSLFANAVLRAQHLHQLAADTYKEFERAYIPEGQRYSIQNAQAAFCFSETIPAPTGKEEAQQRTDMELLRFSLLLIQSWLGPVQFLSRIFTNSLMFGTSDRVYEKLKDLEEGIQALMQELEDGSPRIGQILKQTYDKFDANMRSDDALLKNYGLLSCFKKDLHKAETYLRVMKCRRFAESSCAF
[9]
  liver sex-biased genes whose expression is feminized: 92%
